Measured values reported in article PMC10523748, “Cytotoxicity, acute and sub-chronic toxicities of the leaves of Bauhinia thonningii (Schumach.) Milne-Redh. (Caesalpiniaceae)” (BMC Complementary Medicine and Therapies, 2023).
Where two headings read alike, the source gives them in different places.

What was measured:
[1] = system: HepG2 hepatocarcinoma cells; assay: RRA cytotoxicity, HepG2; settings: Homo sapiens, HepG2, 72 h
Method: (§3) The sources of the HepG2 hepatocarcinoma [27], U87MG glioblastoma cells and its resistant epidermal growth factor receptor (EGFR) transfected subline, U87MG.ΔEGFR [28], HCT116 p53^+/+ colon adenocarcinoma cells and its resistant knock-out congener, HCT116 p53^−/− [29], MDA-MB-231-pcDNA3 breast adenocarcinoma cells and its multidrug-resistant breast cancer resistance protein (BCRP)-transfected MDA-MB-231-BCRP clone 23 subline [30] have also been described. To compare the activity of samples in HepG2 cells, the AML12 hepatocytes were used [31]. […] These culture media were used as complete media with additional 10% fetal bovine serum and 1% penicillin/streptomycin (Invitrogen, Eggenstein, Germany).
(§4) Botanicals were tested in the concentration range of 0.63–80 µg/mL, the isolated compounds at 0.78—100 µM; the treated cells were incubated for 72 h; the fluorescence was measured at the excitation wavelength of 544 nm and at the emission wavelengths of 590 nm using Infinite M2000 Pro™ plate reader (Tecan, Crailsheim, Germany).

HCT116 p53^−/− cells = assay: RRA cytotoxicity, HCT116 p53^−/−; settings: for IC50: Homo sapiens, HCT-116, 72 h; for Degree of resistance: IC50 HCT116 p53^−/− versus HCT116 p53^+/+
Method: (§5) The sources of the HepG2 hepatocarcinoma [27], U87MG glioblastoma cells and its resistant epidermal growth factor receptor (EGFR) transfected subline, U87MG.ΔEGFR [28], HCT116 p53^+/+ colon adenocarcinoma cells and its resistant knock-out congener, HCT116 p53^−/− [29], MDA-MB-231-pcDNA3 breast adenocarcinoma cells and its multidrug-resistant breast cancer resistance protein (BCRP)-transfected MDA-MB-231-BCRP clone 23 subline [30] have also been described. […] These culture media were used as complete media with additional 10% fetal bovine serum and 1% penicillin/streptomycin (Invitrogen, Eggenstein, Germany).
as §4

CCRF-CEM leukemia cells = assay: Resazurin reduction assay (RRA) cytotoxicity, CCRF-CEM; settings: Homo sapiens, 72 h
U87MG glioblastoma cells = assay: RRA cytotoxicity, U87MG; settings: Homo sapiens, U-87 MG, 72 h
Method: as §3, §4

normal AML12 hepatocytes = assay: RRA cytotoxicity, normal AML12 hepatocytes; settings: for Selectivity index: IC50 in AML12 versus IC50 in HepG2; for IC50: Mus musculus, AML12, 72 h
[2] = system: MDA-MB-231-pcDNA breast adenocarcinoma cells; assay: RRA cytotoxicity, MDA-MB-231-pcDNA; settings: Homo sapiens, 72 h
Method: as §3, §4

[3] = system: HCT116 p53^+/+ colon adenocarcinoma cells; assay: RRA cytotoxicity, HCT116 p53^+/+; settings: Homo sapiens, HCT-116, 72 h
Method: as §3, §4

MDA-MB-231-BCRP cells = assay: RRA cytotoxicity, MDA-MB-231-BCRP; settings: for IC50: Homo sapiens, MDA-MB-231/BCRP, 72 h; for Degree of resistance: IC50 MDA-MB-231-BCRP versus MDA-MB-231-pcDNA
Method: as §5, §4

[4] = system: CEM/ADR5000 leukemia cells (P-gp-overexpressing); assay: RRA cytotoxicity, CEM/ADR5000; settings: for IC50: Homo sapiens, ADR5000, 72 h; for Degree of resistance: IC50 CEM/ADR5000 versus CCRF-CEM
Source text: These culture media were used as complete media with additional 10% fetal bovine serum and 1% penicillin/streptomycin (Invitrogen, Eggenstein, Germany).

U87MG.ΔEGFR cells = assay: RRA cytotoxicity, U87MG.ΔEGFR; settings: for IC50: Homo sapiens, 72 h; for Degree of resistance: IC50 U87MG.ΔEGFR versus U87MG
Method: as §5, §4

[5] = system: 9 tested cancer cell lines; assay: RRA cytotoxicity, whole panel of cancer cell lines; settings: for IC50: Homo sapiens, 72 h, read-out: IC50 against all the investigated cancer cell lines
MCF-7 cells = system: MCF-7 cells; parameters: method as in PMID 22213398; settings: cited from earlier work
[6] = system: human hepatocellular carcinoma HuH7 cells; settings: cited from earlier work
[7] = system: reactive oxygen species (ROS) production in CCRF-CEM cells; assay: ROS production, H2DCFH-DA staining and flow cytometry; format: cell-based, human; settings: 24 h
Method: (§1) The treated cells (1 mL; 1 × 10^6 cells) were incubated for 24 h under the standard cell culture condition. Cells were further stained for 30 min with 10 µL of staining solution ([…] or H2DCFH-DA solution for ROS evaluation) according to the manufacturer’s protocol. Using the LSRFortessa FACS analyzer (Becton–Dickinson, Heidelberg, Germany), the amount of 1 × 10^4 cells was further measured as described earlier.

[8] = system: cancer cell lines tested in the current work; parameters: method as in PMID 30703492; settings: cited from earlier work
CCRF-CEM cells = assay: Apoptosis, annexin V/PI staining and flow cytometry; format: cell-based, human; settings: 24 h, non-treated cells 0.4%
Method: The concentration of samples used and CCRF-CEM cells were those as reported above under the standard cell culture conditions. To detect the apoptotic cells, the fluorescein isothiocyanate (FITC)-conjugated annexin V/PI assay kit (eBioscience™ Annexin V; Invitrogen, San Diego, USA) was applied to treated cells after 24 h incubation followed by the measurements with BD Accury C6 Flow Cytometer (BD Biosciences). The assays were performed separately three times and in triplicate.

[9] = system: caspase 9 in CCRF-CEM cells; assay: Caspase-Glo 9 assay; format: cell-based, human; settings: 6 h, versus untreated cells
Method: (§2) The amount of the treated cells was 1.5 × 10^4 cells for the caspase 3/7 assay or 3 × 10^4 cells for the caspase 8 and caspase 9 assays in 100 µL. The treated cells were then incubated for 6 h under the standard cell culture conditions as described above. Subsequently, the activity of caspases was detected by a spectrophotometry measurement of luminescence using 100 µL caspase solution from the Caspase-Glo 3/7, 8, and 9 Assay kits (Promega, Mannheim, Germany) with an Infinite M2000 ProTM plate reader (Tecan).

[10] = system: caspases 3/7 in CCRF-CEM cells; assay: Caspase-Glo 3/7 assay; format: cell-based, human; settings: 6 h, versus untreated cells
Method: as §2

[11] = system: caspase 8 in CCRF-CEM cells; assay: Caspase-Glo 8 assay; format: cell-based, human; settings: 6 h, versus untreated cells
Method: as §2

[12] = system: mitochondrial membrane potential (MMP) of CCRF-CEM cells; assay: MMP analysis, JC-1 staining and flow cytometry; format: cell-based, human; settings: 24 h
Method: as §1

SMILES	melting point	IC50 [1]	IC50 (HCT116 p53^−/− cells)	Degree of resistance (HCT116 p53^−/− cells)	IC50 (CCRF-CEM leukemia cells)	IC50 (U87MG glioblastoma cells)	Selectivity index (normal AML12 hepatocytes)	IC50 (normal AML12 hepatocytes)	IC50 [2]	IC50 [3]	IC50 (MDA-MB-231-BCRP cells)	Degree of resistance (MDA-MB-231-BCRP cells)	IC50 [4]	Degree of resistance [4]	IC50 (U87MG.ΔEGFR cells)	Degree of resistance (U87MG.ΔEGFR cells)	also measured
COc1c(C)c(O)c2c(=O)c(OC)c(-c3ccc(O)cc3)oc2c1C [Compound 7, 6,8-C-dimethylkaempferol 3,7-dimethyl ether]	285 to 287 °C	30.7 ± 1.86 µM	9.71 ± 0.76 µM	0.50	6.61 ± 0.41 µM	19.3 ± 1.62 µM	> 1.63	> 50 µM	1.93 ± 0.19 µM	19.5 ± 2.05 µM	8.15 ± 0.73 µM	4.22	2.86 ± 0.17 µM	0.43	18 ± 2.21 µM	0.93	
COc1cc(-c2oc3cc(OC)c(C)c(O)c3c(=O)c2OC)ccc1O [Compound 3, 6-C-methylquercetin 3,7,3'-trimethyl ether]	185 to 187 °C	23.6 ± 3.23 µM	17.2 ± 0.83 µM	0.87	17.9 ± 1.67 µM	31 ± 2.65 µM		> 50 µM	11 ± 0.58 µM	19.8 ± 0.78 µM	13.2 ± 1.48 µM	1.20	10.2 ± 0.3 µM	0.57	19.8 ± 0.96 µM	0.64	IC50 [5]: < 50 µM
O=c1c(O[C@@H]2O[C@H](CO)[C@@H](O)[C@H](O)[C@H]2O)c(-c2ccc(O)c(O)c2)oc2cc(O)cc(O)c12 [Compound 6, quercetin-3-O-β-glucopyranoside]		21.5 ± 2.25 µM	12.5 ± 1.36 µM	0.57	9.12 ± 0.59 µM	19 ± 2.01 µM	above 2	> 50 µM	6.99 ± 0.28 µM	21.8 ± 2.11 µM	12.3 ± 0.97 µM	1.76	7.88 ± 0.58 µM	0.90	33.5 ± 2.79 µM	1.75	
C[C@H]1[C@H](C)CC[C@]2(C(=O)O)CC[C@]3(C)C(=CC[C@@H]4[C@@]5(C)CC[C@H](O)C(C)(C)[C@@H]5CC[C@]43C)[C@H]12 [Compound 9, ursolic acid]																	IC50 (MCF-7 cells; MCF-7, converted from μg/mL, read-out: IC50): 15.6 µM; IC50 (MCF-7 cells; MCF-7): 7.1 µg/mL; IC50 [6]: 75 µM
C[C@@H]1OC(Oc2c(-c3ccc(O)c(O)c3)oc3cc(O)cc(O)c3c2=O)[C@H](O)[C@H](O)[C@H]1O (stereo partly drawn) [Compound 5, quercetin-3-O-L-rhamnopyranoside]		28.3 ± 1.74 µM	13.2 ± 1.14 µM	0.73	8.73 ± 0.62 µM	23.7 ± 1.77 µM	> 1.77	> 50 µM	7.24 ± 0.47 µM	17.9 ± 1.26 µM	16.8 ± 1.26 µM	2.32	7.21 ± 0.61 µM	0.83	31.1 ± 1.85 µM	1.31	
COc1cccc2c1C(=O)c1c(O)c3c(c(O)c1C2=O)C[C@@](O)(C(=O)CO)C[C@@H]3O[C@H]1C[C@H](N)[C@H](O)[C@H](C)O1 [Doxorubicin, doxorubicin, reference compound]		4.56 ± 0.48 µM	1.78 ± 0.08 µM	3.73	0.02 µM	0.26 ± 0.03 µM		> 50 µM	0.13 ± 0.01 µM		0.79 ± 0.08 µM	6.14	123 ± 10.9 µM	6,683.00	0.98 ± 0.07 µM	3.79	
OO [H2O2, hydrogen peroxide, reference compound]																	ROS level ([7]; 50 µM, untreated cells 0.6%): 94.30%
COc1ccc(-c2oc3cc(O)c(C)c(O)c3c(=O)c2OC)cc1O [Compound 1, 6-C-methylquercetin-3, 4'-dimethyl ether]	195 to 197 °C	23.5 ± 0.59 µM	10.8 ± 1.11 µM	0.51	14.2 ± 0.94 µM	27.2 ± 3.07 µM	> 2.13	> 50 µM	11.3 ± 1.04 µM	21.2 ± 2.45 µM	17 ± 2.05 µM	1.51	10.3 ± 0.44 µM	0.72	26.6 ± 1.13 µM	0.98	IC50 [5]: < 50 µM
CCC(CCC(C)C1CCC2C3CC=C4CC(OC5OC(CO)C(O)C(O)C5O)CCC4(C)C3CCC12C)C(C)C [Compound 10, 3-O-β-D-glucopyranoside of β-sitosterol]		> 50 µM	> 50 µM		44.3 ± 3.91 µM	> 50 µM		> 50 µM	> 50 µM	> 50 µM	> 50 µM		> 50 µM	> 1.13	> 50 µM		IC50 [8]: > 100 µM; Cytotoxic activity in the panel ([5]; 9 cancer cell lines, up to 50 µM): selectively active
COc1c(-c2ccc(O)cc2)oc2c(C)c(O)c(C)c(O)c2c1=O [Compound 8, 6,8-C-dimethylkaempferol-3-methyl ether]	250 to 253 °C	19.4 ± 2.07 µM	3.41 ± 0.35 µM	0.36	3.03 ± 0.37 µM	8.01 ± 0.84 µM		> 50 µM	2.34 ± 0.31 µM	9.59 ± 0.84 µM	8.26 ± 0.66 µM	3.53	2.42 ± 0.3 µM	0.80	15.4 ± 0.64 µM	1.92	Effect on ROS production [7]: enhanced higher ROS production; ROS level ([7]; 2 × IC50, untreated cells 0.6%): 24.50%; Early apoptosis, annexin V (+)/PI (-) cells, highest proportion (CCRF-CEM cells): ≤ 67.3%; Increase of caspase 9 activity [9]: 4.22 fold; Increase of caspases 3/7 activity [10]: 4.41 fold; Increase of caspase 8 activity [11]: 3.63 fold; Effect on the integrity of the MMP [12]: strongly altered the integrity of the MMP; Q1, cells with undamaged (intact) MMP ([12]; 2 × IC50, untreated control 92.6%): 23.0%
COc1cc2oc(-c3ccc(O)c(O)c3)c(OC)c(=O)c2c(O)c1C [Compound 2, 6-C-methylquercetin-3,7-dimethyl ether]	195 to 197 °C	19.6 ± 1.44 µM	9.2 ± 0.45 µM	0.75	12 ± 1.25 µM	24.8 ± 2.22 µM		> 50 µM	9.84 ± 0.66 µM	12.3 ± 1.24 µM	14.3 ± 1.12 µM	1.45	9.11 ± 0.18 µM	0.76	21.1 ± 2.4 µM	0.85	
CC(C)[C@@H]1NC(=O)[C@H](C)OC(=O)[C@@H](C(C)C)NC(=O)[C@@H](C(C)C)OC(=O)[C@H](C(C)C)NC(=O)[C@H](C)OC(=O)[C@@H](C(C)C)NC(=O)[C@@H](C(C)C)OC(=O)[C@H](C(C)C)NC(=O)[C@H](C)OC(=O)[C@@H](C(C)C)NC(=O)[C@@H](C(C)C)OC1=O [Valinomycin, valinomycin, reference compound]																	Effect on the integrity of the MMP [12]: strongly altered the integrity of the MMP; Q1, cells with undamaged (intact) MMP ([12]; positive control, picture: at 25 (no unit), text: 2 × IC50): 38.6%
